Data as given in patent EP4810052A2, “HCRHR2 SELECTIVE POLYPEPTIDES” (Gubra A/S, priority 2023, dated 2026).
Starred links: 1 amine or outer side, 2 acyl side, 3 side chain; linkers in the order of their positions; H or OH if unused. Residues, ends and D or L forms follow the SMILES beside them. Groups on a side chain read outwards from the residue. *: point of attachment. C20 diacid = O=C(O)CCCCCCCCCCCCCCCCCCC(=O)*; γGlu = O=C(O)[C@H](CCC(=O)[*:2])N[*:1]; AEEA = NCCOCCOCC(=O)O

Experiments:
Type in all cases: in vivo
[1] = Myocardial ischemia (LAD ligation) model in rats; conditions: MI rats; for Heart rate / Mean blood pressure: anesthetized, prior to termination
Text: Wistar male rats were obtained from JanVier (Janvier Labs, France) at 6 weeks of age. The animals were pair-housed. During the study, animals had free access to food (RM1, SDS Dietex) and drinking water ad libitum.
Myocardial infarction (MI) was induced by chronic left anterior descending coronary artery (LAD) ligation performed at day zero. Sham operated animals were subjected to the same protocol; after the left lateral thoracotomy exposing the heart, the rib cage was closed without passing the suture thread around LAD.
Treatments started at 1-month post-MI, in order to assess the potential beneficial effect of the candidate compound to prevent the progression of the pathology.
Rats underwent transthoracic echocardiographic (ECG) examination in order to assess cardiac morphology and function in a noninvasively way. Echocardiography was performed by using a digital ultrasound system (Vivid S60, GE Medical Systems) equipped with a 12 MHz phased-array and an 18 MHz linear-array transducer. Standard B-mode (Brightness-mode) and M-mode (Motion-mode) images of the heart were obtained in the two-dimensional (2D) parasternal long axis view (PSLA). LV parameters were measured and calculated as the mean of 3 consecutive cardiac cycles by a single blinded trained operator.
A total of four ECG exams were performed for all the animals. The first examination took place 5-7 days after surgery and was used as a control of the surgery. The second ECG was performed 1 month after LAD ligation. Based on the second ECG, MI rats included were randomized in […] homogeneous groups based on the left ventricular internal diameter in diastole (LVIDd), telediastolic (TeleD) volume, ejection fraction (EF) and fractional shortening (FS): Group 1 (Sham): n=10, group 2 (MI/Vehicle): n=19, group 3 (MI/Atenolol-Lisinopril-Spironolactone (A+L+S) 1-1-10 mg/kg): n=19, group 4 (MI/test peptide 30 nmol/kg): n=19 and group 5 (MI/test peptide 100 nmol/kg): n=19. Vehicle and test peptide were administrated daily SC and A+L+S were dosed through drinking water. The third and fourth ECG were done 2 and 3 months after surgery, and were used to assess the cardiac remodelling and function following MI. At the fourth ECG isovolumic relaxation time (IVRT) and cardiac output (CO) were also assessed by Doppler-echocardiography.
Prior to termination, hemodynamic measurements were performed under anaesthesia using a fluid-filled catheter (BLPR and TBM4m, World Precision Instrument). At termination, left soleus was dissected and weighed.
Statistical analyses were performed with the Graphpad 9 software. If values were normally distributed, a parametric analysis was performed. If samples were drawn from non-normal populations, a non-parametric analysis was performed. First, differences were assessed between Sham and MI/Vehicle using a t-test. Then, the treated MI groups were compared to MI/Vehicle using a one-way ANOVA followed by the appropriate post-hoc test.

[2] = Telemetry in conscious healthy pigs; conditions: study A
Description: PK/PD/safety properties of SEQ ID NO: 3 were evaluated in freely moving conscious healthy pigs by […].
In study part A, the effects of an ascending dose regime of SEQ ID NO: 3, (0.03, 0.1, 0.3 and 1.0 mg/kg) was compared to placebo. Primary endpoints were blood pressure, heart rate and ECG measurements.
In study part B, the effect of repeated dosing (once weekly, for 4 weeks) with a single dose of SEQ ID NO: 3 (0.3 mg/kg) was compared to placebo. Primary endpoints were blood pressure, heart rate and ECG measurements.

[3] = Subchronic unilateral ischemia-reperfusion injury (uIRI) in mice; conditions: for BW at termination / Kidney weight at termination: ± SEM
Text: Male C57BL/6jRj mice were obtained from JanVier (JanVier Labs, France) at 10 weeks of age. The animals were single-housed in Individually Ventilated Cages (IVC from Tecniplast, Typ I SL cage) with free access to water, food and encrichments. Animals were allowed to acclimatize for 7 days prior to study start. After acclimatization, animals were randomized into groups based on body weight; 1) Sham, 2) uIRI - Vehicle, 3) uIRI -SEQ ID NO: 3, 30 nmol/kg and 4) uIRI -SEQ ID NO: 3, 100 nmol/kg.
On study day 0, unilateral ischemia-reperfusion injury (uIRI, 25 min of occlusion followed by reperfusion) was performed on study group 2 - 4 (followed by uninephrectomy (UNx) on study day 6. Animals were subcutaneously dosed once daily starting prior to IRI surgery and until study day 7, where animals were terminated. Here plasma was collected, and the remaining kidney weighed and sampled for histological analysis. Kidneys were stained, analyzed and quantified using the following markers: collagen type-1 (col1a1), F4/80 and KIM-1.

[4] = 2 months of treatment, 30 nmol/kg, ± SEM
[5] = 2 months of treatment, 100 nmol/kg, ± SEM
[6] = 2 months of treatment, compared to MI/Vehicle
[7] = 100 nmol/kg, compared to uIRI vehicle

## CC[C@H](C)[C@H](N)C(=O)N[C@H](C(=O)N[C@@H](CC(C)C)C(=O)N[C@@H](CO)C(=O)N[C@@H](CC(C)C)C(=O)N[C@@H](CC(=O)O)C(=O)N[C@H](C(=O)N1CCC[C@H]1C(=O)N[C@H](C(=O)NCC(=O)N[C@@H](CC(C)C)C(=O)N[C@@H](CC(C)C)C(=O)N[C@@H](CCC(N)=O)C(=O)N[C@H](C(=O)N[C@@H](CC(C)C)C(=O)N[C@@H](CC(C)C)C(=O)N[C@@H](CCC(=O)O)C(=O)N[C@@H](CCC(N)=O)C(=O)N[C@@H](C)C(=O)N[C@@H](CCCNC(=N)N)C(=O)N[C@@H](C)C(=O)N[C@@H](CCCNC(=N)N)C(=O)N[C@@H](C)C(=O)N[C@@H](C)C(=O)N[C@@H](CCCNC(=N)N)C(=O)N[C@@H](CCC(=O)O)C(=O)N[C@@H](CCC(N)=O)C(=O)N[C@@H](C)C(=O)N[C@@H](CCCCNC(=O)COCCOCCNC(=O)COCCOCCNC(=O)CC[C@H](NC(=O)CC[C@H](NC(=O)CCCCCCCCCCCCCCCCCCC(=O)O)C(=O)O)C(=O)O)C(=O)N[C@H](C(=O)N[C@@H](CC(N)=O)C(=O)N[C@@H](C)C(=O)N[C@@H](CCC(=O)O)C(=O)N[C@H](C(=O)N[C@@H](CC(C)C)C(=O)N[C@@H](C)C(=O)N[C@@H](CCC(=O)O)C(=O)N[C@H](C(N)=O)C(C)C)[C@@H](C)CC)[C@@H](C)O)[C@@H](C)CC)[C@@H](C)CC)C(C)C)C(C)C [SEQ ID NO: 3] (H-IVLSLDVPIGLLQILLEQARARAAREQAK([AEEA-AEEA-γGlu-γGlu-C20 diacid])TNAEILAEV-NH2)
[1]; 30 nmol/kg, ± SEM
  Body weight at termination: 550.1 ± 10.6 g
  Left soleus mass: 274.9 ± 9.9 mg
[1]; 100 nmol/kg, ± SEM
  Body weight at termination: 551.6 ± 6.7 g
  Left soleus mass: 275.2 ± 6.8 mg
[1]; [4]
  CO: 129.0 ± 5.1 mL/min
  EF B-mode: 45.52 ± 1.2 %
  EF M-mode: 46.42 ± 1.2 %
  FS: 20.63 ± 0.5 %
  IVRT: 21.81 ± 0.5 ms
  LVIDd: 10.86 ± 0.2 mm
  LVIDs: 8.63 ± 0.2 mm
  LVPWd: 1.84 ± 0.04 mm
  LVPWs: 2.94 ± 0.05 mm
  SV: 0.41 ± 0.01 mL
[1]; [5]
  CO: 125.4 ± 3.8 mL/min
  EF B-mode: 45.55 ± 0.7 %
  EF M-mode: 46.22 ± 0.7 %
  FS: 20.46 ± 0.4 %
  IVRT: 20.87 ± 0.3 ms
  LVIDd: 10.94 ± 0.1 mm
  LVIDs: 8.71 ± 0.1 mm
  LVPWd: 1.63 ± 0.1 mm
  LVPWs: 2.73 ± 0.05 mm
  SV: 0.40 ± 0.02 mL
[1]; [6]
  cardiac output: significant improvements
  ejection fraction: significant improvements
  fractional shortening: significant improvements
  stroke volume: significant improvements
[1]; 30 nmol/kg
  Heart rate: 348.8 ± 6.7 bpm
  Mean blood pressure: 109.9 ± 4.0 mmHg
[1]; 100 nmol/kg
  Heart rate: 353.2 ± 9.1 bpm
  Mean blood pressure: 112.6 ± 4.3 mmHg
[1]; at termination
  muscle mass: significant increase
[1]; compared to MI-Vehicle
  Body weight at termination: weighed significantly more
[2]
  Heart rate: remained unaffected
  mean arterial blood pressure: remained unaffected
  relaxation of the left ventricle: not affected
  systemic or cardiac hemodynamics (LV end diastolic pressure, time constant of relaxation, baroreceptor sensitivity, heart rate variability): No relevant findings
[2]; ECG
  PR-Interval: slight decrease
  QT-Interval: unaffected
[2]; ascending s.c. doses 0.03-1.0 mg/kg
  inotropic effects (contractility): long-lasting positive ionotropic effects
[3]; 30 nmol/kg
  Renal fibrosis, Col1a1: 34.3 ± 2.3 fractional area %
  Renal inflammation, F4/80: 7.3 ± 0.6 fractional area %
  Renal injury, KIM-1: 7.48 ± 0.49 fractional area %
  Serum creatinine: 1.83 ± 0.004 mg/dL
  Serum urea: 463.0 ± 10.5 mg/dL
  BW at termination: 24.4 ± 0.5 g
  Kidney weight at termination: 0.16 ± 0.005 g
[3]; 100 nmol/kg
  Renal fibrosis, Col1a1: 26.4 ± 1.4 fractional area %
  Renal inflammation, F4/80: 2.5 ± 0.6 fractional area %
  Renal injury, KIM-1: 6.00 ± 0.50 fractional area %
  Serum creatinine: 1.17 ± 0.13 mg/dL
  Serum urea: 433 ± 22.5 mg/dL
  BW at termination: 21.8 ± 0.4 g
  Kidney weight at termination: 0.16 ± 0.006 g
[3]; [7]
  kidney fibrosis: reduced
  kidney inflammation: reduced
  serum levels of creatinine: reduced
